Test results as given in article PMC4728427, “Mechanism of allosteric activation of TMEM16A/ANO1 channels by a commonly used chloride channel blocker” (British Journal of Pharmacology, 2016).

Biological target: T1, Mouse TMEM16A (Mus musculus, UniProt Q8BHY3)
T1 construct: expressed in transfected cells; host or cells: HEK-293T
T1 sequence (Q8BHY3 1-960): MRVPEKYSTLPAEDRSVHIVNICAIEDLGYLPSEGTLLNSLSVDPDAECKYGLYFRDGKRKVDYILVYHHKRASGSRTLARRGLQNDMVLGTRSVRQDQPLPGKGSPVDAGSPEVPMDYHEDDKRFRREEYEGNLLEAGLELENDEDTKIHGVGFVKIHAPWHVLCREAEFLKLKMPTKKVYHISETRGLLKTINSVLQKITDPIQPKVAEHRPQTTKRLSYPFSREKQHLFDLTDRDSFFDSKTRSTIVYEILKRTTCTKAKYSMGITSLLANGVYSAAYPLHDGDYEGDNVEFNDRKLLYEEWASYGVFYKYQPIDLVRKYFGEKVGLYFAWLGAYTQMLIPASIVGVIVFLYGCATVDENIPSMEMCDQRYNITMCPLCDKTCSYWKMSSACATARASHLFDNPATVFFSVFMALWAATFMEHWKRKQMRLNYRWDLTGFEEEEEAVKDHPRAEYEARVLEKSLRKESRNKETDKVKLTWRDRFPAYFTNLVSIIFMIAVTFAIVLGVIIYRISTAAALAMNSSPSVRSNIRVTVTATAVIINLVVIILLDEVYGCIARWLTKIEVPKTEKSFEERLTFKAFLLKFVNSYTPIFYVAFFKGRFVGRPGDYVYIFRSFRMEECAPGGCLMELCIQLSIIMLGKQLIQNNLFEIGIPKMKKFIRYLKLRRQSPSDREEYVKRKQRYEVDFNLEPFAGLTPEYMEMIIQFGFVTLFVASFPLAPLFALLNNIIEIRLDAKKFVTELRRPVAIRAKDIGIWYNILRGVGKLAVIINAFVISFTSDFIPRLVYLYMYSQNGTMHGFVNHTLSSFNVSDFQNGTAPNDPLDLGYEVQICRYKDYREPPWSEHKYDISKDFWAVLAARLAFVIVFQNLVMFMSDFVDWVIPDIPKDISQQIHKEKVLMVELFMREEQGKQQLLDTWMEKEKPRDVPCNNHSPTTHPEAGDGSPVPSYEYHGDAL
Assay: Whole-cell TMEM16A current versus Vm relationship with extracellular A9C, 300 nM [Ca2+]i
Assay type: cell-based
Method: Mouse TMEM16A (GenBank NM_178642) subcloned into pcDNA3.1 vector was used in this study (Alexander et al., 2013). HEK‐293T cells were cultured as previously described (Smith et al., 2013) and transfected with 0.5–1 μg of TMEM16A and 0.1 μg of CD8 constructs using Fugene HD (Promega, Madison, WI, USA) according to the manufacturer's instructions. Cells were used ~12–36 h after transfection. Transfected cells were visualized using the anti‐CD8 antibody‐coated beads method (Jurman et al., 1994).
TMEM16A currents were measured with the whole‐cell or inside‐out patch configuration of the patch‐clamp technique as detailed in the Supporting Information. The exchange of solutions was achieved by using a local perfusion system consisting of eight tubes of 1.2 mm diameter in which the tip of the patch pipette was inserted. In some experiments, ultra‐rapid (<50 ms) changes in A9C concentration ([A9C]) (‘concentration jumps’) were achieved using a computer‐controlled perfusion system (Warner Instruments, Hamden, CT, USA).
The intracellular solution contained (mM) 130 CsCl, 10 EGTA, 1 MgCl2, 10 HEPES and 8 CaCl2 to obtain ~300 nM of [Ca^2+]i; pH was adjusted to 7.3 with NaOH. The intracellular solutions containing ~600 nM, ~1000 nM and ~12.5 μM [Ca^2+]i were obtained by replacing EGTA with equimolar H‐EDTA and by adding 2.1, 3.1 and 7.8 mM CaCl2 respectively. The extracellular solution contained (mM) 150 NaCl, 1 CaCl2, 1 MgCl2, 10 glucose, 10 D‐mannitol and 10 HEPES; pH was adjusted to 7.4 with NaOH. […] A9C was dissolved in DMSO (stock concentration, 300 mM); thus, the final concentration of DMSO was ≤1%. Aliquots of the stock solution were kept at −20° and used within 5 days.
Current versus V m relationships were constructed by measuring currents in response to 1 s V m steps (test pulses) from −100 to +100 mV in 40 mV increments (unless stated otherwise) after a 1 s V m step to +70 mV (pre‐pulse). Pulses were elicited every 2 s from a holding V m of 0 mV. Steady‐state currents were measured at the end of the test pulses. As detailed in the Results, in the presence of 300 nM [Ca^2+]i and extracellular A9C, the test‐pulse currents reached a peak within the first ~50 ms of the test pulse. These peak currents were also measured and plotted against the V m of the test pulse. Current density was obtained by dividing the current amplitude for the cell capacitance.
For determination of the current reversal potential (E rev), instantaneous currents were estimated from extrapolation of single exponential fits of the test‐pulse currents to the beginning of each test pulse. These instantaneous current values were plotted as a function of the V m, and the relative chord conductance was measured between an interval of ±20 m V around the E rev (Tammaro et al., 2005; Adomaviciene et al., 2013).
The project began by examining if this also applies to cloned TMEM16A channels. In the presence of increasing extracellular [A9C] ([A9C]ext), a pre‐pulse of +70 mV was used to open TMEM16A channels followed by a series of test pulses (Figure 1).
Ta C.M., Adomaviciene A., Rorsman N., Garnett H. and Tammaro P.
SUPPLEMENTARY INFORMATION
TMEM16A currents were measured with the whole-cell or inside-out configuration of
the patch-clamp technique using an Axon 200B amplifier (Molecular Devices, USA)
controlled with GE-pulse software (http://users.ge.ibf.cnr.it/pusch/programs-mik.htm).
Currents were filtered at 2-5 kHz and sampled at 10 kHz, unless stated otherwise. […]

peak current at −100 mV relative to control (3000 μM A9C extracellular): ~ 13 folds | steady-state current decrease (3000 μM [A9C]ext, Vm > 60 mV, whole-cell): up to approximately threefold | E rev of TMEM16A currents (3000 μM [A9C]ext, control 4.5 ± 1.4 mV): 8.3 ± 1.4 mV | steady-state current increase ([A9C]ext ≤ 100 μM, Vm > 60 mV, whole-cell): ~ 1.3 folds | steady-state current change at Vm ≤ 60 mV (any [A9C]ext tested (30-3000 μM)): did not change substantially
SMILES: O=C(O)c1c2ccccc2cc2ccccc12 [A9C, Anthracene‐9‐carboxylic acid]
